2 compounds from patent US20250275964A1, “METHODS OF INHIBITING LIVER-TYPE GLUTAMINASE, GLS2” (CORNELL UNIVERSITY, priority 2019, published 2025) can be followed below.

Holding throughout (assay type): cell-based, human
Test [1] has as its system T-47D cells. Briefly: 6-day cell proliferation assay, T-47D. Conditions: proliferation over 6 days. The method, then: (§1) Human breast cancer cell lines MCF7, BT-474, T-47D, MDA-MB-453, MDA-MB-231, Hs 578T, HCC38, SK-BR-3, and DU4475 were purchased from the American Type Culture Collection (ATCC) and no additional cell authentication was performed. The TSE human breast cancer cell line was supplied by Dr. Steven Abcouwer (University of Michigan). All breast cancer cells were cultured at 37° C. under a 5% CO2 atmosphere in RPMI 1640 medium containing 2 mM glutamine (Gibco) and supplemented with 10% fetal bovine serum (FBS) (Gibco). The 293T cell line (ATCC) used for generating lentivirus particles was cultured as above but using DMEM, high glucose (Gibco).
(§2) Culture medium was added to 12-well plates (1 ml/well) and wells were seeded with cells at Day 0 as follows. MCF7, T-47D, BT-474, HCC38 cells: […] cells/well. MDA-MB-453 and MDA-MB-231 cells: 1×10^4 cells/well. TSE and Hs 578T cells: 0.3×10^4 cells/well. After 16 hours, culture medium was replaced with fresh medium supplemented with appropriate concentrations of inhibitors and was subsequently replaced every 48 hours. On Day 6 cells were trypsinized and suspended in an appropriate volume of culture medium, and the total number of cells per well was determined using a hemocytometer or a TC20 Automated Cell Counter (Bio-Rad).

Test [2] concerns Hs 578T cells. As to the kind of experiment: 6-day cell proliferation assay, Hs 578T. Conditions: proliferation over 6 days. The method, then:
as §1, §2

Test [3] relates to TSE cells carrying the plasmid vector only. As to the kind of experiment: 6-day cell proliferation assay, TSE vector only. Conditions: 6 days. As for the experimental part: as §2
Vectors for expressing human GAC or GLS2 in breast cancer cell lines were based on pCDNA3.1/V5-His TOPO (Thermo Fisher Scientific), with the appropriate gene sub-cloned in and the tag switched to HA-tag or myc-tag for immunofluorescence experiments. Vectors pQE80-GAC-72-598 and pQE80-GLS2-38-602, for expressing the processed forms of human GAC (residues 72 to 598) or GLS2 (residues 38 to 602) in E. coli, were described in Huang et al., “Characterization of the Interactions of Potent Allosteric Inhibitors with Glutaminase C, a Key Enzyme in Cancer Cell Glutamine Metabolism,” J. Biol. Chem. 293:3535-3545 (2018), which is hereby incorporated by reference in its entirety.
For 60 mm dish format. […]

The term EC50 denotes the concentration giving half of the maximal effect. Read a high EC50 as lower potency in that assay. `O=C(Cc1ccccc1)Nc1nnc(CCSCCc2nnc(NC(=O)Cc3ccccc3)s2)s1` [BPTES]: the EC50 was roughly 20 µM in test [1], 3.7 µM in test [2] and 4 µM in test [3].
For `CN(C)c1ccc(C2Nc3ccc4ccccc4c3C3=C2C(=O)CC(C)(C)C3)cc1Br` (stereo not drawn) [Compound 968] the same measures were 4 µM, 4 µM and 2 µM.
